In patent publication US20100093653A1, “Use of 1,6-Bis [3-(3-carboxymethylphenyl)-4-(2-alpha-D-mannopyranosyl-oxy)-phenyl] hexane for the preparation of cosmetic compositions” (Revotar Biopharmaceuticals AG, priority 2006, published 2010):

How the values were obtained:
[1] = system: isolated perfused porcine fore limb; test: isolated perfused porcine fore limb transdermal penetration assay; type: in vitro ADME; details: microemulsion of example 6; 5 h application time; LC/MS
Description: By using the microemulsion as described in example 6 skin penetration studies of FORM 1 of 1,6-Bis [3-(3-carboxymethylphenyl)-4-(2-α-D-mannopyranosyloxy)-phenyl]hexane employing an isolated perfused porcine fore limb transdermal penetration assay using pig porcine is performed according to the methods known to the skilled person. The isolated perfused porcine fore limb is an assay system, which retains intact anatomy and skin, muscle, blood vessel and bone morphology. The organ is kept vitalized by perfusion with a blood-based perfusion medium for up to 6 h. This system allows monitoring of transdermal, resorption, penetration or permeation of pharmaceuticals and cosmetics. 3 application sites are choosen and surrounded by Leukosilk. On each of these areas 10 μl of microemulsion are applied with a pipette and distributed with the pipette tip.
For three additional application sites, the cotton pads of three Hill Top chambers in total, are soaked and saturated with microemulsion and applied to skin. After 5 h application time Hill Top chambers are removed and the unabsorbed microemulsion from the free sites is removed with a dry swab each. 20 Tesa strips are collected from each of the six applications sites. […] Swabs, strips, skin biopsys are analysed for content of FORM 1 of 1,6-Bis [3-(3-carboxymethylphenyl)-4-(2-α-D-mannopyranosyloxy)-phenyl]hexane with LC/MS. […]

[2] = system: porcine skin; test: Franz diffusion cell penetration assay using porcine skin; type: in vitro ADME; details: microemulsion of example 6; 10.4 μl on 1000 μm porcine skin; 8 h; 37° C.; LC/MS
Description: By using the microemulsion as described in example 6, skin penetration studies of FORM 1 of 1,6-Bis [3-(3-carboxymethylphenyl)-4-(2-α-D-mannopyranosyloxy)-phenyl]hexane in employing a Franz diffusion cell penetration assay using porcine skin is performed according to the methods known to the skilled person. Porcine skin samples (6 in total, 2 from each animal, 3 female animals in total), 1000 μm thick, with the stratum corneum facing up are placed onto the lower part of a Franz diffusion cell. The cell is rinsed with medium tempered to 37° C. to prevent the skin from drying out and the system is equilibrated for 30 minutes. 10.4 μl of microemulsion as described in example 6 is applied to the dry upper side of the epidermis using a pipette and the microemulsion is distributed with an inoculation loop. Medium is collected every hour.
After 8 h the experiment is finished. The skin is punched out and the surface of the skin is swabed to removed excess microemulsion. The dry surface is stripped 20 times using Tesafilm. Swabs, strips, medium and skin samples are analysed for content of FORM 1 of 1,6-Bis [3-(3-carboxymethylphenyl)-4-(2-α-D-mannopyranosyloxy)-phenyl]hexane by LC/MS. On average 4% of the applied amount of FORM 1 of 1,6-Bis [3-(3-carboxymethylphenyl)-4-(2-α-D-mannopyranosyloxy)-phenyl]hexane in the microemulsion as described in example 6 penetrates into skin.

[3] = system: wrinkles of crow's feet; test: Anti-wrinkle efficacy, crow's feet skin replicas with image analysis; type: in vivo, healthy subjects; details: microemulsion of example 6, twice a day for 28 days; treated vs untreated crow's feet; all subjects
Description: By using the microemulsion as described in example 6, the anti-wrinkle effect of FORM 1 of 1,6-Bis [3-(3-carboxymethylphenyl)-4-(2-α-D-mannopyranosyloxy)-phenyl]hexane (compound of formula (I)) is investigated according to methods known to the skilled person. 40 healthy subjects aged between 34 and 59 years, comprising 35 women and 5 men are selected. The formulation containing FORM 1 of the compound of formula (I), is applied twice a day, in the morning and in the evening, to one temporal zone of the face (crow's feet) for 28 days. The other zone remains untreated and serves as a control. An impression (skin replicas) is made from the control and treated zone at time 0 and after 28 days of treatment using SILFO impression material (Flexico, England).

[4] = system: skin elasticity of the back; test: Model of hormone induced skin ageing (menopause model, bilateral ovarectomy); type: in vivo, female hairless mice; details: microemulsion of example 6 onto the back twice daily for two months after ovary removal; vehicle control animals showed the reduction
Description: By using the microemulsion as described in example 6, the effect of FORM 1 of 1,6-Bis [3-(3-carboxymethylphenyl)-4-(2-α-D-mannopyranosyloxy)-phenyl]hexane (compound of formula (I)) on hormone induced skin ageing is investigated employing a menopause model according to methods known to the skilled person. Five-week old female hairless mice are subjected to bilateral ovarectomy, and used as an animal model of menopause. For two months from immediately after ovary extraction, the formulation containing FORM 1 of compound of formula (I) is applied onto the back twice daily. As a control, the formulation without FORM 1 of compound of formula (I) is applied in a similar protocol (vehicle control). […] Two months after ovary removal, skin elasticity of the back is measured using a Cutometer (COURAGE KHAZAKSA).

[5] = system: photoageing; test: Protective effect against photoageing, chronic solar-simulated UV radiation; type: in vivo, hairless mice; details: microemulsion of example 6, topical twice daily during 30 weeks UV-exposure; histology
Description: By using the microemulsion as described in example 6, the protective effect of FORM 1 of 1,6-Bis [3-(3-carboxymethylphenyl)-4-(2-α-D-mannopyranosyloxy)-phenyl]hexane (compound of formula (I)) against photoageing (hairless mice) is investigated according to methods known to the skilled person. Hairless mice are exposed to chronic solar-simulated UV radiation for 30 weeks.

[6] = system: photoageing of human skin; test: Protective effect against photoaging of human skin, solar simulated UV radiation, immunohistology of biopsies; type: in vivo; details: microemulsion of example 6, topical before 2 MED UV; buttock skin biopsies 24 hours after exposition; vehicle control skin showed it
Description: By using the microemulsion as described in example 6, the protective effect of FORM 1 of 1,6-Bis [3-(3-carboxymethylphenyl)-4-(2-α-D-mannopyranosyloxy)-phenyl]hexane (compound of formula (I)) against photoageing of human skin is investigated according to methods known to the skilled person. Two areas of buttock skin (each approximately 2×2 cm) of 10 healthy male white volunteers are exposed to erythematogenic doses (2 MED) of solar simulated UV radiation. Before radiation one area is topically treated with the formulation containing FORM 1 of compound of formula (I), the other with the formulation without FORM 1 of compound of formula (I) (vehicle control). 24 hours after exposition, biopsies are taken from both areas and as control from an area that is not exposed to radiation.

applied amount that penetrates into skin (on average) [1]: 5%
applied amount that penetrates into skin (on average) [2]: 4%
Compound: O=C(O)Cc1cccc(-c2cc(CCCCCCc3ccc(O[C@H]4O[C@H](CO)[C@@H](O)[C@H](O)[C@@H]4O)c(-c4cccc(CC(=O)O)c4)c3)ccc2O[C@H]2O[C@H](CO)[C@@H](O)[C@H](O)[C@@H]2O)c1 [FORM 1 of compound of formula (I), 1,6-Bis [3-(3-carboxymethylphenyl)-4-(2-α-D-mannopyranosyloxy)-phenyl]hexane]
depth of wrinkles [3]: significantly reduces
length of wrinkles [3]: significantly reduces
number of wrinkles [3]: significantly reduces
significantly reduced skin elasticity (Cutometer) as compared to normal animals [4]: This was not the case
degraded dermal collagen [5]: protected significantly
deposition of glycosamisnoglycans in the lower dermis [5]: protected significantly
dermal mast cell number [5]: protected significantly
epidermal hyperplasia [5]: protected significantly
focal elastotic deposits [5]: protected significantly
matrix-metallo-proteinase-1 (MMP-1) [6]: This is not the case
matrix-metallo-proteinase-9 (MMP-9) [6]: This is not the case
strong infiltration of neutrophils [6]: This is not the case
